From patent US6984649B1, “Pyridine derivatives” (Bayer Aktiengesellschaft, priority 2000, dated 2006)
Structures can show the parent of a compound that is named as a salt.

Target: T1, human IKK-β (Homo sapiens, UniProt O14920)
T1 construct: A cDNA fragment encoding human IKK-β open reading frame was generated by PCR; His tag (from pcDNA3.1/His C); made in house; host or cells: Sf21 insect cells (baculovirus); substrate made in E. coli
T1 sequence (O14920 1-756): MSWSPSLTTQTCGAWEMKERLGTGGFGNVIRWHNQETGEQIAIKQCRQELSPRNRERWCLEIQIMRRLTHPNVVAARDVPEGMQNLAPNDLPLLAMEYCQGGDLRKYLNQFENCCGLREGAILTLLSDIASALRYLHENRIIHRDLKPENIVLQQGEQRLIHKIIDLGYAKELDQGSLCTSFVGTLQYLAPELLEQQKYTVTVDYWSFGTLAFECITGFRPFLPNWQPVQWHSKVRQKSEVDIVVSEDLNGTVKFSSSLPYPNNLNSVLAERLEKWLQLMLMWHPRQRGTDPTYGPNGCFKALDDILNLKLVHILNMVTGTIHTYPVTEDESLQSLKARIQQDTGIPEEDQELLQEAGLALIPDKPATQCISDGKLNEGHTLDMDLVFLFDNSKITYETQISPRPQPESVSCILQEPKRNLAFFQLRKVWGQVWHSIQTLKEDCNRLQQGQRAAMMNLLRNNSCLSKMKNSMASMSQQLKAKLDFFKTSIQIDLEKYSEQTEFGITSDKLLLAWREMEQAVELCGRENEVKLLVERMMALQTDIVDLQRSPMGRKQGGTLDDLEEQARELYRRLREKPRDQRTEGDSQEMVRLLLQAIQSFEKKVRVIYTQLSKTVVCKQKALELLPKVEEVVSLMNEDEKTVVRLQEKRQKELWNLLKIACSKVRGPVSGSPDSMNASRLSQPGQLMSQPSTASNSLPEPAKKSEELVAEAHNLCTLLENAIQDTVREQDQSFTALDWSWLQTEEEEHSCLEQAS
Assay: IKK-β kinase inhibitory assay
Format: biochemical
Settings: compounds as yielded by solid phase synthesis, purity about 40 to 90%, read-out: In vitro activity grade (In vitro IC50)
Source text: [IKK-β Kinase Inhibitory Assay]
(1) Preparation of IKK-β Kinase Protein.
• A cDNA fragment encoding human IKK-β open reading frame was generated by PCR with the use of a pair of primers designed from the published sequence (Woronicz J D et al. (1997) Science 278, 866-869). A template was obtained from Quickclone cDNA (Clontech) using Elongase™ Amplification kit (Life Technologies). The DNA fragments generated by PCR were gel-purified and subcloned into pBluescript. The cDNA fragment cloned in pBluescript was inserted into pcDNA3.1/His C KpnI/NotI, and transferred into pVL1393 SmaI/XbaI (Pharmingen) to construct a baculovirus transfer vector. Then the vector, together with the linearized baculovirus (BaculoGold™, Pharmingen) was used to transfect Sf21 cells (Invitrogen, San Diego, Calif.). Generated recombinant baculovirus was cloned and amplified in Sf21 cells, grown in TNM-FH insect cell medium (Life Technologies, Inc.) supplemented with 10% FCS, […] Gentamycin, 0.1% Pluronic F-68 (Life Technologies, Inc.) as suspension culture (200 ml in 1 L Erlenmeyer flask; 27° C.; 130 rpm). Sf21 cells were infected with this amplified virus with a multiplicity of infection of 5 following standard protocols (Crossen R, Gruenwald S (1997) Baculovirus Expression Vector System Instruction Manual, Pharmingen Corporation) and harvested 48 hrs later. The cells were lysed to obtain the produced chimeric protein of IKK-β kinase fused by histidine (His-tagged IKK-beta). (2) The Preparation of Purified GST-IκBα Fusion Proteins • An expression vector containing the nucleotide sequence encoding fusion protein of GST with amino acid residues 1 to 54 of IκBα under the control of an IPTG-inducible promoter was constructed. The expression vector was introduced in E. coli and the transformant was cultured and lysed to obtain a GST-IκBα fusion protein. Then the resulting GST-IκBα fusion protein was purified and biotinated for kinase assay. (3) The Measurement of IKK-β Kinase Activity • The 96-well format kinase assay of IKK-β were performed to test the inhibitory activity of the compounds of the present invention. First, 5 μl of a test compound was put in the presence of 2.5% dimethyl sulfoxide (DMSO) in each well in a U-bottomed 96-well plate (Falcon). For control wells of background (BG) and total phosphorylation (TP), 5 μl of 2.5% DMSO was put. Recombinant IKK-β (final 0.6 μg/ml) and bio-GST-IκBα (1-54) (final 0.2 μM) were diluted in 25 μl of 2×kinase buffer β (40 mM Tris-HCl, pH 7.6, 40 mM MgCl2, 40 mM β-glycerophosphate, 40 mM p-nitrophenylphosphate, 2 mM EDTA, 40 mM creatine phosphate, 2 mM DTT, 2 mM Na3VO4, 0.2 mg/ml BSA and 0.8 mM phenylmethylsulfonyl fluoride) and transferred to the 96-well plate. Bio-GST-IκBα (1-54) in 25 μl of 2×kinase buffer β without IKK-β was transferred to BG wells. Then 20 μl of 12.5 μM ATP, 62.5 μCi/ml [γ-^33P] ATP (Amersham Pharmacia Biotech) was added and the resulting mixture was incubated for 2 hrs at room temperature. The kinase reactions were terminated by the addition of 150 μl of termination buffer (100 mM EDTA, 1 mg/ml BSA, 0.2 mg NaN3). One hundred and fifty μl of the sample were transferred to a streptavidin-coated, white MTP (Steffens Biotechniche Analysen GmbH #08114E14.FWD) to capture the biotinylated substrates. After 1 hr of incubation, non-bound radioactivity was eliminated by washing the wells five times with 300 μl of washing buffer including 0.9% NaCl and 0.1% (w/v) Tween-20 with the use of a MW-96 plate washer (BioTec). The bound radioactivity was determined after the addition of 170 μl MicroScint-PS scintillation cocktail (Packard) using a TopCount scintillation counter. [Syk Tyrosine Kinase Inhibitory Assay for Selectivity] (1) Preparation of Syk Protein • A cDNA fragment encoding human Syk openreading frame was cloned from total RNA of human Burkitt's lymphoma B cell lines, Raji (American Type Culture Collection), with the use of RT-PCR method.

Row | SMILES | IC50 [nM]
1 | N#Cc1c(C2CNc3ccccc3C2)cc(-c2ccccc2O)nc1N (centres unmarked) [Example 1-16] | > 10000
2 | N#Cc1c([C@@H]2Cc3ccccc3CN2)cc(-c2ccccc2O)nc1N [Example 1-27] | 2000 to 10000
3 | CCCCOc1cccc(O)c1-c1cc(C2CCNCC2)c(C#N)c(N)n1 [Example 2-72] | < 500
4 | N#Cc1c(C2CCCNC2)cc(-c2ccccc2O)nc1N1CCNCC1 (centres unmarked) [Example 4-5, 6-(2-hydroxyphenyl)-2-(1-piperazinyl)-4-(3-piperidinyl)nicotinonitrile dihydrochloride] | > 10000
5 | Cn1c(=O)[nH]c2nc(-c3c(O)cccc3OCC3CC3)cc(C3CCCNC3)c2c1=O (centres unmarked) [Example 10-2, 7-(2-Cyclopropylmethoxy-6-hydroxy-phenyl)-3-methyl-5-piperidin-3-yl-1H-pyrido[2,3-d]pyrimidine-2,4-dione] | < 500
6 | N#Cc1c(N2CCCCC2)cc(-c2ccccc2O)nc1N [Example 34-05] | > 10000
7 | N#Cc1c(NCCN)cc(-c2c(O)cccc2OCC2CC2)nc1N [Example 34-14] | < 500

System: A549 human lung epithelium cell line
Assay: RANTES production in response to TNF-α from A549 cells
Format: cell-based
Settings: Homo sapiens, A549, A549 cells, 100 ng/ml TNF-α, read-out: Cellular activity grade (A549) (Cellular IC50)
Protocol: [The Measurement of RANTES Production in Response to TNF-α from A549 Cells]
(1) Preparation of A549 Cells
• The A549 human lung epithelium cell line (ATCC […]) was maintained in Dulbecco's modified Eagle's medium (D-MEM, Nikken Biomedical Institute) supplemented with 10% FCS (Gibco), 100 U/ml penicillin, 100 μg/ml streptomycin, and 2 mM glutamine (culture medium). Forty thousand (4×10^4) cells (80 μl/well) were seeded in each well of 96 well flat-bottom tissue culture plate (Falcon #3072). The plate was allowed to stand for 2 hrs, thus the cells were adhered to the bottom of each well. To the each well was added 10 μl vehicle (1% DMSO), serial dilutions of test compounds in 1% DMSO, or 5 nM Dexamethasone in 1% DMSO as a reference. The mixture (90 μl/well) was incubated for 1 hr at 37° C. After 1 hr, 1 μg/ml TNF-α (10 μl) in culture medium was added to the mixture to obtain 100 μl of reaction mixture. The reaction mixture was cultured for 24 hrs to stimulate the cells with 100 ng/ml TNF-α. Cells with vehicle without TNF-α stimulation were also prepared. (2) Measurement of RANTES Production • Then the concentration of RANTES released from the cells in the supernatants of each well was determined using a quantitative sandwich enzyme immunoassay technique. First, 2 μg/ml mouse anti-huRANTES mAb (R&D Systems, #mAb678) in PBS buffer (pH 7.4, 100 μl) was put in each well of 96-well NUNC fluoro plate (Nalge Nunc, New York USA) (Final 200 ng/well) and the plate was allowed to stand for overnight at 4° C. to be coated by the antibody. Each well of the plate was then washed with 350 μl wash buffer (0.05% Tween-20, 0.85% NaCl, and 25 mM Tris/HCl pH7.4) for three times. Blocking buffer containing 1% BSA (Sigma 99% pure, 100 g), 5% sucrose (Nacalai tesque, 99% pure, 500 g), and 0.02% azide (Nacalai tesque, 100%, 500 g) were added (200 μl) to each well and then the plate was allowed to stand for 4 hours to stabilize the coated antibody. Next, 50 μl supernatants of cell culture prepared in (1) above were put in each well of the 96-well NUNC fluoro plate with coated antibody. Recombinant Human RANTES (Pepro Tech, Inc. #300-06) was used as the standard for the determination of RANTES production (linear range between 1 and 10 ng/ml). Eu-labelled mouse anti-huRANES mAb (60 ng/ml: R&D Systems, #mAb278) in PBS supplemented by 1% BSA and 0.05% Tween 20 was added (50 μl) to each well. The reaction mixtures were incubated at room temperature for 4 hrs. After washing with wash buffer (0.05% Tween-20, 0.85% NaCl, and 25 mM Tris/HCl pH7.4, 350 μl/well) for 5 times with the use of a Sera Washer (Bio-Tech, #MW-96R), the enhancement solution (DELFIA, #1244-405, 100 μl/well) was added to each well. The plate was incubated for 10 minutes at room temperature with moderate shaking. Fluorescent intensity was measured using a DELFIA fluorimeter (Wallac). Excitation was performed at 340 nm and emission was measured at 615 nm. [The Measurement of TNF-α Production in Response to LPS from Peripheral Blood Mononuclear Cells (PBMC)] (1) Preparation of PBMC • Human PBMC were prepared by first obtaining blood from healthy donors and isolating the cells from the blood. The isolation was done by Ficoll gradient-centrifugation method using Ficoll Pacque (Pharmacia #17-1440-02). Within three hours from donation, the isolated PBMC was used. After three times washing with PBS, PBMC were resuspended with RPMI 1640 (Nikken BioMedical Institute) supplemented with 10% FCS (Gibco), 100 U/ml penicillin, 100 μg/ml streptomycin, and 2 mM glutamine (culture medium). The cells (1×10^5 in 150 μL/well) were seeded in each well of 96 well flat-bottom tissue culture plate (Falcon #3072). To the each well was added 20 μl vehicle (1% DMSO), serial dilutions of test compounds in 1% DMSO, or 250 nM Dexamethasone in 1% DMSO as a reference. The mixture (170 μl/well) was incubated for 1 hr at 37° C. After 1 hr, 20 ng/ml LPS (30 μl) in culture medium was added to the mixture to obtain 200 μl of reaction mixture. […]

Row | SMILES | IC50 [nM]
8 | O=C1Nc2nc(-c3c(O)cccc3OCC3CC3)cc(C3CCCNC3)c2CO1 (centres unmarked) [Example 18-1, 7-[2-(cyclopropylmethoxy)-6-hydroxyphenyl]-5-(3-piperidinyl)-1,4-dihydro-2H-pyrido[2,3-d][1,3]oxazin-2-one hydrochloride] | < 1000
